Values of other authors, collected in patent US10640803B2, “Methods for determining chemosensitivity and chemotoxicity” (priority 2013, dated 2020).

Tested on: CLL patients
Conditions: caused the halt of the study

Q: Which “adverse event in the study” value does the source give for `CC1(C)CCC(c2ccc(Cl)cc2)=C(CN2CCN(c3ccc(C(=O)NS(=O)(=O)c4ccc(N[C@H](CCN5CCOCC5)CSc5ccccc5)c(S(=O)(=O)C(F)(F)F)c4)cc3)CC2)C1` [ABT-263] here?
A: The value was “occurrence of tumor lysis syndrome”.
